Results published in patent US20250354096A1, “IN VITRO DEVICE FOR VASCULARIZED MICROFLUIDIC MODELING OF OSTEOCHONDRAL UNIT” (CFD Research Corporation, priority 2024, published 2025).

How the values were obtained:
[1] = system: MMPs (catabolic genes related to OA) in bone and cartilage channels; experiment: qPCR of MMP changes in OC device after defined inflammatory cytokines and drug candidate; type: cell-based, human; conditions: combination of defined inflammatory cytokines for 24 hours, then Tyrphostin-9; versus no treatment and cytokine alone; FIGS. 11A-11F
From the text: The qPCR data from extracted cells was obtained from the cells that can be individually extracted on a per-channel basis so that tissues can be analyzed separately. […] Statistical significance determined by Kruskal-Wallis non-parametric test followed by Dunn's post hoc. * p<0.05, ** p<0.01, and *** p<0.001. FIGS. 10A, 10C, and 10E show bone. FIGS. 10B, 10D, and 10F show cartilage.
FIGS. 11A-11F include data that show the MMP changes in response to the combination of defined cytokines and a drug candidate. Devices were exposed to a combination of defined inflammatory cytokines for 24 hours. After 24 hours, the devices were exposed to either fresh medium without cytokines, or to Tyrphostin-9 (TY9), a candidate compound with potential anti-inflammatory effects under consideration as a palliative for osteoarthritis (OA). […] Thus, the device can be used to screen for drugs to treat OA.

[2] = system: tri-culture of hMSC derived chondrocytes, hMSC derived osteoblasts and HUVEC; experiment: Inflammatory assay: oxidative stress (CellROX Orange ROS) in tri-culture OC device; type: cell-based, human; conditions: 100 ng/mL LPS perfused into channel 3, no RAP; 4 hours without flow; versus control; n=3; FIG. 8
Experimental: In the tri-culture device, OA-like cues were supplied to observe i) oxidative stress induced by LPS conditioning, and ii) the reduction of the oxidative stress in the simultaneous presence of LPS and the anti-inflammatory drug Rapamycin (RAP). Thus, three conditions were investigated: no insult (control,-LPS-RAP), insult (+LPS−RAP), and insult plus treatment (+LPS+RAP). For the insult, the medium was exchanged in established devices with 100 ng/mL LPS perfused into channel 3 to maximize inflammation across the device by supplying LPS in the closest proximity to both bone and vasculature. […]
Resultant oxidative stress was measured by image processing after four hours by the CellROX™ Orange Reactive Oxygen Species Detection Kit (Thermo Fisher), a fluorometric reactive oxygen species (ROS) assay, according to the manufacture's protocol. […] The same microscope was used to capture images for each experiment and exposure and other microscope settings were kept constant to allow quantitative comparisons between micrographs. Quantitative measurement of relative ROS was conducted by image analysis via ImageJ and Matlab®. Briefly, for each condition (i.e., i)-LPS-RAP; ii)+LPS-RAP; iii)+LPS+RAP) images were split into three regions of interest (ROIs), representing the three channel of the devices (vasculature, bone, cartilage), that were separately analyzed. […]

Compound	MMP changes (fold change) / inflammatory condition [1]	oxidative stress of the cells (relative ROS, normalized image intensity) [2]
CC(C)(C)c1cc(C=C(C#N)C#N)cc(C(C)(C)C)c1O [Tyrphostin-9]	inflammatory condition is improved	–
lipopolysaccharide [LPS]	–	increases the oxidative stress of the cells in all the compartment
